Measurements from PubChem BioAssay AID1322 (NMMLSC, 2008).
Calls of active or inactive are those of the source. The rule behind the calls is not given here.

Target: Bcl-2-like protein 1 (Homo sapiens) (UniProt Q07817)
Assay: Bcl-XL binding to Bim peptide disruption – biochemical, multiplexed, bead flow cytometry, human Bcl-XL, dose response (AID 1322); for inhibition: test concentration not given here
Conditions: Bead-based flow cytometry, MCF; for inhibition: hits give high values

Chain of Bcl-2-like protein 1 (Homo sapiens) (Q07817 whole entry, looked up): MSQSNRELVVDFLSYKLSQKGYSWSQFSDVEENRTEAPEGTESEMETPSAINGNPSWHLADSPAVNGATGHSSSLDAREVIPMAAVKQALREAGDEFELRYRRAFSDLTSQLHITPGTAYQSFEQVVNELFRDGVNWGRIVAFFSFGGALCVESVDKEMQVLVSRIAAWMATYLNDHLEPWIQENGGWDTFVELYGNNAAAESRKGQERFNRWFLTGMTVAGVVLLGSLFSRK

CC(=O)NC1=C(NC2CCS(=O)(=O)C2)C(=O)c2ccccc2C1=O (centres undefined)
inhibition: inactive

CSc1ccccc1NC(=O)CN(C)CC(=O)Nc1ccc(N2CCOCC2)cc1
outcome: inactive

c1ccc(C2=Nc3cccc4cccc(c34)N2)cc1
inhibition: inactive

CCOC(=O)c1snc(-c2ccc(F)cc2)c1N
inhibition: inactive

COc1cc(C2Nc3cccc4cccc(c34)N2)ccc1OC(C)=O
inhibition: inactive

COc1ccc(-c2noc(COc3ccc4c(c3)OCO4)n2)cc1OC
inhibition: inactive

Cc1cc(C)c[n+](-c2nc3ccccc3nc2C(=C=[N-])C#N)c1
inhibition: inactive

COc1c(C)cc(Br)cc1C(=O)Nc1ccc(S(N)(=O)=O)cc1
outcome: inactive

Cc1ccc(NC(=O)c2cc(S(=O)(=O)NCCC3=CCCCC3)ccc2F)cc1F
outcome: inactive

CCOc1ccccc1C(=O)NC1CC2CCCC(C1)N2C1CC1 (centres undefined)
inhibition: inactive

CC[n+]1c(/C=C/C=C/N(C(C)=O)c2ccccc2)sc2ccccc21
inhibition: inactive

Cc1cc(NC(=O)CSc2nnc(-c3cccnc3)n2Cc2ccccc2)no1
inhibition: inactive

CC1=CC(=O)c2c(O)ccc(O)c2C1=O
inhibition: inactive

O=C1/C(=C/c2cccs2)Sc2ccccc21
inhibition: inactive

Cc1cc(NC(=O)CCCC(=O)N(CC(=O)NC2CCCCC2)c2ccccc2)no1
inhibition: inactive

CC(C)CNC(=O)c1cccc(NC(=O)c2ccc(Cl)c([N+](=O)[O-])c2)c1
inhibition: inactive

CS(=O)(=O)NN1C(=O)c2ccccc2NC1c1ccccc1 (centres undefined)
outcome: inactive

O=C1NC(=O)C2(Cc3c(nc4ccccn4c3=O)N3CCCCCC32)C(=O)N1Cc1ccccc1 (centres undefined)
inhibition: inactive

Cc1ccc(-c2cc(-c3ccc4c(c3)OCO4)c(C#N)c(N)n2)o1
inhibition: inactive

COc1cccc2c(SCC(=O)N/N=C/c3ccccc3)cc(C)nc12
inhibition: inactive

COCCNC(=S)Nc1cc(OC)c(OC)cc1C#N
inhibition: inactive

O=C1NCCN1C(=O)N(c1ccccc1)c1ccccc1
inhibition: inactive

CNc1ccc(Br)cc(C(=O)/C=C/c2ccc(OC)cc2OC)c1=O
inhibition: inactive

CCN1/C(=C\c2ccc3cc(C)ccc3[n+]2CC)Sc2cc(C)c(C)cc21
outcome: inactive

COc1ccccc1-n1c(SCC(=O)N2CCc3ccccc32)nc2c(c1=O)SCC2
inhibition: inactive

CN(C)c1cccc(NC(=O)C2(C)CC2(Cl)Cl)c1 (centres undefined)
outcome: inactive

O=S1(=O)N=C(N(CCO)/N=C/c2ccccc2)c2ccccc21
inhibition: inactive

CN(Cc1cccs1)C(=O)CCc1c[nH]c2ccccc12
outcome: inactive

O=C1CSc2ccc(C(=O)Nc3cccc(S(=O)(=O)Nc4ccc(Br)cc4)c3)cc2N1
inhibition: inactive

CCOC(=O)c1nn(-c2ccccc2)c(C#N)c1N
outcome: inactive

Cc1ccc(C)c(Oc2ncnc(N)c2[N+](=O)[O-])c1
inhibition: inactive

CNc1ccc(Br)cc(C(=O)/C=C/c2cc(OC)ccc2OC)c1=O
inhibition: inactive

Cc1ccc(SCCC(=O)Nc2ccc(Br)c(C)c2)cc1
inhibition: inactive

COc1cc(/C=N/Nc2nc3c(c(=O)n(C)c(=O)n3C)n2Cc2ccccc2)ccc1OC(=O)c1ccco1
outcome: inactive

O=C(N/N=C/c1ccc(O)c(O)c1O)/C(=C/c1ccc([N+](=O)[O-])cc1)NC(=O)c1ccccc1
inhibition: inactive

S=c1[nH]cc(-c2ccccc2)n1-c1ccccc1
inhibition: inactive

Cc1cc(Cl)c(S(=O)(=O)NCC2CCCO2)cc1OCC(N)=O (centres undefined)
inhibition: inactive

O=C(NCCCN1CCN(CCCNC(=O)c2cc([N+](=O)[O-])ccc2Cl)CC1)c1cc([N+](=O)[O-])ccc1Cl
inhibition: inactive

Cc1ccc(-c2cc(-c3ccc(F)cc3)nc(N)c2C#N)o1
inhibition: inactive

CCOc1cccc(CNc2ccc(O)cc2)c1OCc1ccccc1Cl
inhibition: inactive

CCOc1cc(/C=N/NC(N)=O)ccc1OCC(=O)Nc1ccc(C)c(C)c1
inhibition: inactive

CCOc1ncccc1C(=O)OC(C)C(=O)Nc1ccc(CC)cc1 (centres undefined)
outcome: inactive

COc1ccc(C(=O)Nc2ccc(C(=O)OCC(=O)c3cccc4ccccc34)cc2)cc1
inhibition: inactive

COCCN=c1scc(-c2cccs2)n1/N=C/c1ccc(O)c(O)c1O
inhibition: inactive

COc1ccc(Cl)cc1-n1c(C)cc(C=O)c1C
inhibition: inactive

Cc1ccc(NC2=C(NC(=O)c3ccccc3)C(=O)c3ccccc3C2=O)cc1Cl
inhibition: inactive

Cc1ccc2cc(C)c(Sc3nnnn3-c3ccccc3)nc2c1
inhibition: inactive

Cc1ccc(N=Cc2c(O)n(-c3ccc4c(c3)OCO4)c(=O)c3ccccc23)cc1
inhibition: inactive

OC(CNC1CCCCC1)COCCOc1ccc(Br)cc1 (centres undefined)
inhibition: inactive

CC1CC2=C(NC(=S)NC2c2cccc(F)c2)/C(=C/c2cccc(F)c2)C1 (centres undefined)
outcome: inactive

CNCc1ccccc1Sc1ccc(O)c(O)c1
inhibition: inactive

Cc1c(NC2=C(Cl)C(=O)N(c3ccccc3Cl)C2=O)c(=O)n(-c2ccccc2)n1C
inhibition: inactive

Cc1cccc(OCC(=O)NCC(=O)N/N=C/c2cc(Br)ccc2OCc2ccccc2)c1
inhibition: inactive

CCCCCCc1cc2cc(C(=O)Nc3ccccc3)c(=O)oc2cc1O
inhibition: inactive

COc1ccc(CN(CC(=O)NC2CCCC2)C(=O)CCC(=O)Nc2cc(C)on2)cc1
outcome: inactive

Cc1cc(-c2csc(N)n2)c(C)n1CCC(C)C
inhibition: inactive

O=C(Nc1ccc2nc(-c3ccco3)c(-c3ccco3)nc2c1)N1CCN(c2ccccn2)CC1
inhibition: inactive

Cn1c(CCNC(=O)C2CCCCC2)nc2cc(NC(=O)c3cccs3)ccc21
outcome: inactive

Cc1cc(C)c(C)c(S(=O)(=O)N2CCN(CC(=O)NC(=O)NCc3ccccc3)CC2)c1C
inhibition: inactive

COc1cc(/C=C2/NC(=O)N(Cc3ccccc3F)C2=O)cc(OC)c1O
inhibition: inactive

Cc1ccc(-n2[nH]c(C)c(/C=N/Nc3ccc([N+](=O)[O-])cc3[N+](=O)[O-])c2=O)cc1C
inhibition: inactive

COc1ccc(C2=Nc3cccc4cccc(c34)N2)cc1
inhibition: inactive

Clc1nssc1=Nc1ccc(Br)cc1
outcome: inactive

Cc1ccc(/C=C2/NC(=O)N(Cc3ccc(Br)cc3)C2=O)o1
inhibition: inactive

O=C(c1ccccc1NS(=O)(=O)c1ccc(Br)s1)N1CCCC1
inhibition: inactive

N#CC(C#N)=C1C=CC=CN1/C(=C\c1ccco1)C(=O)c1ccccc1
inhibition: inactive

Nc1ccc(C2=Nc3cccc4cccc(c34)N2)cc1
inhibition: inactive

Cc1cc(N/C(=N/S(=O)(=O)c2cc(F)ccc2F)c2ccccc2)n(-c2ccccc2)n1
outcome: inactive

CCCn1c(N2CCN(C)CC2)nc2c1c(=O)[nH]c(=O)n2C
inhibition: inactive

O=C(Cc1ccc(-c2ccccc2)cc1)NC1CCCC1
inhibition: inactive

CS(=O)(=O)NN1C(=O)c2ccccc2NC1c1cccs1 (centres undefined)
inhibition: inactive

CCN(C(=O)COC(=O)c1cc(-c2ccc(C)o2)nc2ccccc12)C1CCS(=O)(=O)C1 (centres undefined)
inhibition: inactive

CCC(CC)C(=O)Nc1cccc(S(=O)(=O)c2cccc(NC(=O)C(CC)CC)c2)c1
inhibition: inactive

Cc1ccc(-n2nc(C)c(C(=O)O)n2)c(C)c1
inhibition: inactive

O=C1/C(=C\c2ccco2)NC(=S)N1c1ccccc1
inhibition: inactive

O=C(Cn1cncc1-c1ccc([N+](=O)[O-])cc1)Nc1ccccc1F
inhibition: inactive

COCCNC(=O)CN1CCC(NC(=O)Nc2ccccc2)CC1
inhibition: inactive

COC(=O)Cc1ccc(NC(=S)N2CCN(c3cccc(O)c3)CC2)cc1
inhibition: inactive

O=C(Cc1ccccc1)OCCNC(=O)c1cccnc1
inhibition: inactive

COc1ccc2nc(-c3ccco3)c(-c3ccco3)nc2c1
inhibition: inactive

CNc1ccc(Br)cc(C(=O)/C=C/c2cccc(OC)c2)c1=O
inhibition: inactive

O=C(c1cc2ccccc2oc1=O)N(c1ccccc1)C1C=CS(=O)(=O)C1 (centres undefined)
inhibition: inactive

CNCc1ccccc1Sc1cc(O)ccc1O
outcome: inactive

O=C(Nc1ccc(N2CCOCC2)cc1)Nc1ccc2nc(-c3ccco3)c(-c3ccco3)nc2c1
inhibition: inactive

COc1cc(/C=N/NC(=O)c2ccc([N+](=O)[O-])cc2Cl)cc(Br)c1O
inhibition: inactive

COc1ccc(N2C(=O)C(Cl)=C(Nc3c(C)n(C)n(-c4ccccc4)c3=O)C2=O)cc1
inhibition: inactive

O=C(Nc1ccc(Cl)cn1)Nc1ccccc1F
inhibition: inactive

Cc1cc(N2CCN(C)CC2)nc2ccc(NC(=S)N3CCCCC3)cc12
inhibition: inactive

Cn1c(=O)c(C(=O)COC(=O)c2cc(-c3ccco3)nc3ccccc23)c(N)n(Cc2ccccc2)c1=O
inhibition: inactive

Cc1ccc(-c2nc3c(c(=O)[nH]c(=O)n3Cc3ccccc3)n2Cc2ccccc2)o1
inhibition: inactive

S=c1[nH]cc(-c2ccccc2)n1-c1ccccc1Cl
inhibition: inactive

Cc1cc(C)cc(-n2c(C)nc3cc(C(=O)O)ccc32)c1
inhibition: inactive

O=c1[nH]c2ccc(N=Cc3c(O)ccc4cc(Br)ccc34)cc2[nH]1
inhibition: inactive

Cc1cc2nc(/C(C#N)=C/c3ccncc3)[nH]c2cc1C
inhibition: inactive

CCN1/C(=C/c2ccc3cc(C)cc(C)c3[n+]2CC)Sc2cc(C)ccc21
inhibition: inactive

CCOC(=O)CSc1nnc(-c2cccc(Cl)c2)n1CC
inhibition: inactive

Cc1nonc1NC(=O)CSc1nnc(-c2ccoc2C)n1C
inhibition: inactive

COc1ccc(CCNC(=O)c2cc(-c3ccccn3)nc3c(Cl)cccc23)cc1OC
inhibition: inactive

N/C(Cc1ccc(Cl)c(Cl)c1)=N\OC(=O)c1cccs1
inhibition: inactive

Cc1ccccc1/C=N/Nc1ccnc2cc(Cl)ccc12
inhibition: inactive

COc1ccc(-n2c(NC(=O)c3ccco3)c(C#N)c3nc4ccccc4nc32)cc1
inhibition: inactive

CC(=O)c1ccc2c(c1)C1C=CCC1C(c1ccncc1)N2 (centres undefined)
inhibition: inactive

CCN(CC)C(=O)COC(=O)c1cc(-c2ccco2)nc2ccccc12
outcome: inactive

O=C(Nc1n[nH]c(C(F)(F)F)n1)C1CC1
inhibition: inactive
